Data published in PubChem BioAssay (NCI).
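Interpolation was linear, between the two tested concentrations surrounding the appropriate level; five concentrations were tested over 48 hours in 96-well plates. Here, GI50 denotes the concentration required for 50% inhibition of growth. TGI is the concentration that stops growth completely.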

Experiments:
Assay in all cases: inhibition of tumour cell growth, NCI panel, 48 h
[1] = test system: LXFL 529 NSCLC
[2] = test system: HOP-92 NSCLC
[3] = test system: U251 CNS
[4] = test system: RPMI-8226 leukemia
[5] = test system: CAKI-1 renal
[6] = test system: HL-60(TB) leukemia
[7] = test system: CCRF-CEM leukemia
[8] = test system: HCT-116 colon
[9] = test system: SNB-78 CNS
[10] = test system: KM20L2 colon
[11] = test system: MOLT-4 leukemia
[12] = test system: DMS 114 small cell lung

Compound: CC(C)=CC(=O)Cc1nc2ccccc2[nH]c1=O
- TGI [1]: > 100 µM
- TGI [2]: 68 µM
- TGI [3]: > 100 µM
- TGI [4]: > 100 µM
- TGI [5]: > 100 µM
- TGI [6]: > 100 µM
- TGI [7]: > 100 µM
- TGI [8]: > 100 µM
- TGI [9]: > 100 µM
- TGI [10]: > 100 µM
- TGI [11]: > 100 µM

Compound: Cc1cc2c(cn1)C(=O)OCC2
- TGI [1]: > 100 µM
- TGI [12]: > 100 µM
- TGI [3]: > 100 µM
- TGI [4]: > 100 µM
- TGI [6]: > 100 µM
- TGI [7]: > 100 µM
- TGI [8]: > 100 µM
- TGI [9]: > 100 µM
- TGI [10]: > 100 µM
- TGI [11]: > 100 µM

Compound: O=C(CC(=O)Nc1ccc(Cl)cc1)NNCC(=O)Nc1nc(-c2ccccc2)cs1
- TGI [1]: > 100 µM
- TGI [12]: > 100 µM
- TGI [3]: > 100 µM
- TGI [4]: > 100 µM
- TGI [6]: > 100 µM
- TGI [7]: > 100 µM
- TGI [8]: > 100 µM
- TGI [9]: > 100 µM
- TGI [10]: > 100 µM
- TGI [11]: > 100 µM

Compound: CN1C(c2ccccc2)CC(=Nc2ccccc2)CC1c1ccccc1 (stereo not drawn)
- TGI [1]: 16.4 µM
- TGI [2]: 22 µM
- TGI [3]: 19.6 µM
- TGI [4]: 13.7 µM
- TGI [5]: 42.3 µM
- TGI [6]: > 100 µM
- TGI [7]: > 100 µM
- TGI [8]: 16.4 µM
- TGI [9]: 37.2 µM
- TGI [10]: 26.5 µM
- TGI [11]: 28.7 µM

Compound: N=C(c1ccccc1)N1CCCCC1
- TGI [1]: > 100 µM
- TGI [12]: > 100 µM
- TGI [3]: > 100 µM
- TGI [5]: > 100 µM
- TGI [6]: > 100 µM
- TGI [8]: > 100 µM
- TGI [9]: > 100 µM
- TGI [10]: > 100 µM

Compound: COc1cc2c(cc1OC)-c1c(cnn1C1OC(COC(C)=O)C(OC(C)=O)C(OC(C)=O)C1OC(C)=O)CC2 (stereo not drawn)
- TGI [1]: > 100 µM
- TGI [12]: > 100 µM
- TGI [2]: > 100 µM
- TGI [3]: > 100 µM
- TGI [4]: > 57.3 µM
- TGI [5]: > 100 µM
- TGI [7]: > 100 µM
- TGI [8]: > 100 µM
- TGI [9]: > 100 µM
- TGI [10]: > 100 µM
- TGI [11]: > 100 µM

Compound: C/C(=N\NC(=S)N(C)C)c1ncc[nH]1
- TGI [1]: > 100 µM
- TGI [12]: 39.8 µM
- TGI [2]: 7.85 µM
- TGI [3]: 5.22 µM
- TGI [4]: > 100 µM
- TGI [6]: 5.87 µM
- TGI [7]: 54.9 µM
- TGI [8]: > 100 µM
- TGI [10]: > 100 µM
- TGI [11]: 24 µM

Compound: COc1cc2c(cc1OCCCCCOc1cc(-c3ccc(F)cc3)nc(C)n1)N=C[C@@H]1CCCN1C2=O
- GI50 [2]: 0.376 µM
- TGI [2]: 6.7 µM
- GI50 [3]: > 34.8 µM
- TGI [3]: > 86.7 µM
- TGI [4]: > 24 µM
- GI50 [5]: > 41.7 µM
- TGI [5]: > 66.9 µM
- GI50 [6]: > 100 µM
- TGI [6]: > 100 µM
- TGI [7]: > 45.2 µM
- GI50 [8]: > 52.9 µM
- TGI [8]: 98.4 µM
- TGI [11]: > 45 µM

Compound: Cc1c(C(=O)/C=C/c2ccc(O)cc2)nnn1-c1ccnc2c(C(F)(F)F)cccc12
- GI50 [2]: 34.5 µM
- TGI [2]: > 100 µM
- GI50 [3]: 5.14 µM
- TGI [3]: 69.8 µM
- GI50 [4]: 2.84 µM
- TGI [4]: 21.1 µM
- GI50 [5]: 28.6 µM
- TGI [5]: > 100 µM
- GI50 [6]: 4.01 µM
- TGI [6]: 31.4 µM
- GI50 [7]: 4.54 µM
- TGI [7]: > 100 µM
- GI50 [8]: 6.66 µM
- TGI [8]: > 100 µM
- GI50 [11]: 5.06 µM
- TGI [11]: 30.6 µM

Compound: CN(C)c1cccc2[nH]c(-c3[nH]ncc3Nc3ccnc(N)n3)nc12
- GI50 [2]: 0.0152 µM
- TGI [2]: 0.0603 µM
- GI50 [3]: < 0.0119 µM
- TGI [3]: 1.33 µM
- GI50 [4]: 0.281 µM
- TGI [4]: 0.885 µM
- GI50 [5]: < 0.01 µM
- TGI [5]: 1.01 µM
- GI50 [6]: < 0.0141 µM
- TGI [6]: 0.0666 µM
- GI50 [7]: < 0.0118 µM
- TGI [7]: 4.48 µM
- GI50 [8]: < 0.01 µM
- TGI [8]: 1.09 µM
- GI50 [11]: 0.0258 µM
- TGI [11]: 10.2 µM

Compound: O=C(O)C(/C=C/c1ccco1)=N\Nc1nc(-c2ccc(Cl)cc2)cs1
- GI50 [2]: 10.1 µM
- TGI [2]: 49.4 µM
- GI50 [3]: 4.59 µM
- TGI [3]: > 50 µM
- GI50 [4]: 15.8 µM
- TGI [4]: > 50 µM
- GI50 [5]: 16.6 µM
- TGI [5]: > 50 µM
- GI50 [6]: 17.1 µM
- TGI [6]: > 50 µM
- GI50 [7]: 3.26 µM
- TGI [7]: > 50 µM
- GI50 [8]: 11.6 µM
- TGI [8]: > 50 µM
- GI50 [11]: 8.62 µM
- TGI [11]: > 50 µM

Compound: COc1ccc(NC2=C(Sc3nc(C)cc(C)n3)C(=O)N(Cc3ccccc3)C2=O)cc1Cl
- GI50 [2]: 29.4 µM
- TGI [2]: > 160 µM
- GI50 [3]: 55 µM
- TGI [3]: > 160 µM
- GI50 [4]: 8.79 µM
- TGI [4]: > 160 µM
- GI50 [5]: > 160 µM
- TGI [5]: > 160 µM
- GI50 [6]: 140 µM
- TGI [6]: > 160 µM
- GI50 [7]: 13.9 µM
- TGI [7]: > 160 µM
- GI50 [8]: 39 µM
- TGI [8]: > 160 µM
- GI50 [11]: 14.4 µM
- TGI [11]: > 160 µM

Compound: Cc1sc2ncnc(Sc3nc4ccccc4[nH]3)c2c1C
- GI50 [2]: 13.8 µM
- TGI [2]: 63.8 µM
- GI50 [3]: 18.8 µM
- TGI [3]: 43.2 µM
- GI50 [4]: 19.5 µM
- TGI [4]: > 100 µM
- GI50 [5]: 25.4 µM
- TGI [5]: > 100 µM
- GI50 [6]: 22.7 µM
- TGI [6]: 59.4 µM
- GI50 [7]: 21.1 µM
- TGI [7]: > 100 µM
- GI50 [8]: 24 µM
- TGI [8]: > 100 µM
- GI50 [11]: 22.2 µM
- TGI [11]: 88.7 µM

Compound: COc1ccccc1NC(=O)CC(=O)n1nc(C)c(N=Nc2ccccc2F)c1C
- TGI [1]: > 100 µM
- TGI [12]: > 100 µM
- TGI [2]: > 100 µM
- TGI [3]: > 100 µM
- TGI [4]: > 100 µM
- TGI [5]: > 100 µM
- TGI [6]: > 100 µM
- TGI [8]: > 31.6 µM
- TGI [9]: > 31.6 µM
- TGI [10]: > 100 µM
- TGI [11]: > 31.6 µM

Compound: N#Cc1c(NC(=O)c2cccs2)[n+]([O-])c2ccccc2[n+]1[O-]
- GI50 [2]: 81.7 µM
- TGI [2]: > 100 µM
- GI50 [3]: > 100 µM
- TGI [3]: > 100 µM
- GI50 [4]: > 100 µM
- TGI [4]: > 100 µM
- GI50 [5]: > 100 µM
- TGI [5]: > 100 µM
- GI50 [6]: > 100 µM
- TGI [6]: > 100 µM
- GI50 [7]: > 100 µM
- TGI [7]: > 100 µM
- GI50 [8]: > 100 µM
- TGI [8]: > 100 µM
- GI50 [11]: > 100 µM
- TGI [11]: > 100 µM

Compound: CCCOc1ccc(/C=C\c2cc(OC)c(OC)c(OC)c2)cc1
- TGI [1]: > 100 µM
- TGI [12]: > 100 µM
- TGI [2]: > 100 µM
- TGI [3]: > 100 µM
- TGI [4]: > 100 µM
- TGI [5]: > 100 µM
- TGI [6]: > 100 µM
- TGI [7]: > 100 µM
- TGI [8]: > 100 µM
- TGI [9]: > 100 µM
- TGI [10]: > 100 µM

Compound: COC(=O)Nc1ccc2ccc3c(NC(=O)OC)ccc4ccc1c2c43 (tested in a mixture with another compound)
- GI50 [2]: 1.62 µM
- TGI [2]: 14.1 µM
- GI50 [3]: 12 µM
- TGI [3]: > 50 µM
- GI50 [4]: 8.22 µM
- TGI [4]: > 50 µM
- GI50 [5]: 6.44 µM
- TGI [5]: 27.4 µM
- GI50 [6]: 9.95 µM
- TGI [6]: > 50 µM
- GI50 [7]: 6.04 µM
- TGI [7]: > 50 µM
- GI50 [8]: 5.43 µM
- TGI [8]: > 50 µM
- GI50 [11]: 7.07 µM
- TGI [11]: 33.7 µM
